According to ChEMBL document CHEMBL3751690, “Oxidative burst inhibition, cytotoxicity and antibacterial acriquinoline alkaloids from Citrus reticulate (Blanco)” (Bioorg Med Chem Lett, 2016):

How the values were obtained:
Bacillus subtilis = test: Antimicrobial activity against Bacillus subtilis after 48 hrs by paper disk diffusion assay; format: functional
Aphanomyces cochlioides = test: Antimicrobial activity against Aphanomyces cochlioides after 48 hrs by paper disk diffusion assay; format: functional
[1] = Inhibition of serum-opsonized zymosan-induced oxidative burst in whole blood (unknown origin); format: functional, tissue-based
Rhizoctonia solani = test: Antimicrobial activity against Rhizoctonia solani after 48 hrs by paper disk diffusion assay; format: functional
Staphylococcus aureus = test: Antimicrobial activity against Staphylococcus aureus after 48 hrs by paper disk diffusion assay; format: functional
[2] = Cytotoxicity against human PC3 cells after 3 days by MTT assay; format: functional, cell-based; settings: PC-3, 72 h
Candida albicans = test: Antimicrobial activity against Candida albicans after 48 hrs by paper disk diffusion assay; format: functional
Rhizomucor miehei = test: Antimicrobial activity against Mucor miehei after 48 hrs by paper disk diffusion assay; format: functional
Escherichia coli = test: Antimicrobial activity against Escherichia coli after 48 hrs by paper disk diffusion assay; format: functional
Globisporangium ultimum = test: Antimicrobial activity against Pythium ultimum after 48 hrs by paper disk diffusion assay; format: functional

Row | Compound | MIC (Bacillus subtilis) [µg/mL] | MIC (Aphanomyces cochlioides) [µg/mL] | IC50 [1] [µM] | MIC (Rhizoctonia solani) [µg/mL] | MIC (Staphylococcus aureus) [µg/mL] | IC50 [2] [µM] | MIC (Candida albicans) [µg/mL] | MIC (Rhizomucor miehei) [µg/mL] | MIC (Escherichia coli) [µg/mL] | MIC (Globisporangium ultimum) [µg/mL]
1 | COc1ccc2c(=O)c3c(O)cc4c(c3n(C)c2c1C1(O)C(=O)c2cc(C)cc3ccc(=O)n1c23)C=CC(C)(C)O4 (configuration not stated) | > 1 | > 1 | 20.1 | > 1 | > 1 | 75.8 | > 1 | > 1 | > 1 | > 1
2 | Cc1cc2c3c(ccc(=O)n3C(O)(c3c(O)ccc4c(=O)c5c(O)cc6c(c5n(C)c34)C=CC(C)(C)O6)C2=O)c1 (configuration not stated) | > 1 | > 1 | 17.2 | > 1 | > 1 | 71.5 | > 1 | > 1 | > 1 | > 1
3 | COc1cc(O)c(C=O)cc1OC | > 1 | > 1 | 16.4 | > 1 | > 1 | 60.1 | > 1 | > 1 | > 1 | > 1
4 | COc1cccc2c(=O)c3c(O)cc4c(c3n(C)c12)C=CC(C)(C)O4 | > 1 | > 1 | 4.5 | > 1 | > 1 | 70 | > 1 | > 1 | > 1 | > 1
5 | CC1(C)C=Cc2c(cc(O)c3c(=O)cc(-c4ccc(O)cc4)oc23)O1 [ATALANTOFLAVONE] | > 1 | > 1 | 10.5 | > 1 | > 1 | 55.6 | > 1 | > 1 | > 1 | > 1
6 | COc1cccc2c1C(=O)c1c(O)c3c(c(O)c1C2=O)C[C@@](O)(C(=O)CO)C[C@@H]3O[C@H]1C[C@H](N)[C@H](O)[C@H](C)O1 [DOXORUBICIN] |  |  |  |  |  | 0.9 |  |  |  | 
7 | CC(C)Cc1ccc(C(C)C(=O)O)cc1 (configuration not stated) [IBUPROFEN] |  |  | 11.2 |  |  |  |  |  |  | 
8 | COc1c2ccoc2c(OC)c2oc(=O)ccc12 [ISOPIMPINELLIN] | > 1 | > 1 | 9.4 | > 1 | > 1 | 99.8 | > 1 | > 1 | > 1 | > 1
9 | COc1cc2ccc(=O)oc2cc1OC [SCOPARONE] | > 1 | > 1 | 11.4 | > 1 | > 1 | 54.4 | > 1 | > 1 | > 1 | > 1
10 | COc1cc2oc(=O)ccc2cc1CC=C(C)C [SUBEROSIN] | > 1 | > 1 | 18.3 | > 1 | > 1 | 51.3 | > 1 | > 1 | > 1 | > 1
